Assay results from patent US12077503B2, “Substituted cyclic amides and their use as herbicides” (FMC CORPORATION, priority 2015, dated 2024).

What was measured:
Assay type in all cases: in vivo
[1] = system: velvetleaf (Abutilon theophrasti); test: Test G Post-Emergence Protocol; conditions: Abutilon theophrasti, post-emergence, 312 h; for pest or weed control at 15.625 g/ha: 15.625 g ai/ha, evaluated after 13 days (100=total damage to plant; 0=no damage to plant), read-out: Velvetleaf damage rating; for pest or weed control at 62.5 g/ha: 62.5 g ai/ha, read-out: Velvetleaf damage rating (100=total damage to plant; 0=no damage to plant); for pest or weed control at 62.5 g/ha / pest or weed control at 250 g/ha: evaluated after 13 days; for pest or weed control at 250 g/ha: 250 g ai/ha, read-out: damage to plant, Velvetleaf (100=total damage to plant; 0=no damage to plant)
How it was run: (§1)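 Foliar application was made 8 days after sowing, using an aqueous spray of the active in acetone/water (50:50) with 0.5% Tween 20, at doses of 15.625, 62.5 or 250 g/ha. Injury was assessed 13 days later, where 100 meant the plant was fully damaged.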

[2] = system: redroot pigweed (Amaranthus retroflexus); test: Test G Post-Emergence Protocol; conditions: Amaranthus retroflexus, post-emergence, 312 h; for pest or weed control at 15.625 g/ha: 15.625 g ai/ha, evaluated after 13 days (100=total damage to plant; 0=no damage to plant), read-out: Pigweed, Redroot damage rating; for pest or weed control at 62.5 g/ha: 62.5 g ai/ha, read-out: Pigweed, Redroot damage rating (100=total damage to plant; 0=no damage to plant); for pest or weed control at 62.5 g/ha / pest or weed control at 250 g/ha: evaluated after 13 days; for pest or weed control at 250 g/ha: 250 g ai/ha, read-out: damage to plant, Pigweed, Redroot (100=total damage to plant; 0=no damage to plant)
How it was run: as §1

[3] = system: barnyardgrass (Echinochloa crus-galli); test: Test G Post-Emergence Protocol; conditions: Echinochloa crus-galli, post-emergence, 312 h; for pest or weed control at 15.625 g/ha: 15.625 g ai/ha, evaluated after 13 days (100=total damage to plant; 0=no damage to plant), read-out: Barnyardgrass damage rating; for pest or weed control at 62.5 g/ha: 62.5 g ai/ha, read-out: Barnyardgrass damage rating (100=total damage to plant; 0=no damage to plant); for pest or weed control at 62.5 g/ha / pest or weed control at 250 g/ha: evaluated after 13 days; for pest or weed control at 250 g/ha: 250 g ai/ha, read-out: damage to plant, Barnyardgrass (100=total damage to plant; 0=no damage to plant)
How it was run: as §1

[4] = system: giant foxtail (Setaria faberi); test: Test G Post-Emergence Protocol; conditions: Setaria faberi, post-emergence, 312 h; for pest or weed control at 15.625 g/ha: 15.625 g ai/ha, evaluated after 13 days (100=total damage to plant; 0=no damage to plant), read-out: Foxtail, Giant damage rating; for pest or weed control at 62.5 g/ha: 62.5 g ai/ha, read-out: Foxtail, Giant damage rating (100=total damage to plant; 0=no damage to plant); for pest or weed control at 62.5 g/ha / pest or weed control at 250 g/ha: evaluated after 13 days; for pest or weed control at 250 g/ha: 250 g ai/ha, read-out: damage to plant, Foxtail, Giant (100=total damage to plant; 0=no damage to plant)
How it was run: as §1

[5] = system: ivy-leaved morning glory (Ipomoea hederacea); test: Test G Post-Emergence Protocol; conditions: Ipomoea, post-emergence, 312 h; for pest or weed control at 15.625 g/ha: 15.625 g ai/ha, evaluated after 13 days (100=total damage to plant; 0=no damage to plant), read-out: Morningglory, Ivy-leaved damage rating; for pest or weed control at 62.5 g/ha: 62.5 g ai/ha, read-out: Morningglory, Ivy-leaved damage rating (100=total damage to plant; 0=no damage to plant); for pest or weed control at 62.5 g/ha / pest or weed control at 250 g/ha: evaluated after 13 days; for pest or weed control at 250 g/ha: 250 g ai/ha, read-out: damage to plant, Morningglory, Ivy-leaved (100=total damage to plant; 0=no damage to plant)
How it was run: as §1

[6] = system: corn (Zea mays); test: Test G Post-Emergence Protocol; conditions: Zea mays, post-emergence, 312 h; for plant injury at 15.625 g/ha: 15.625 g ai/ha, evaluated after 13 days (100=total damage to plant; 0=no damage to plant), read-out: Corn damage rating; for plant injury at 62.5 g/ha: 62.5 g ai/ha, read-out: Corn damage rating (100=total damage to plant; 0=no damage to plant); for plant injury at 62.5 g/ha / plant injury at 250 g/ha: evaluated after 13 days; for plant injury at 250 g/ha: 250 g ai/ha, read-out: damage to plant, Corn (100=total damage to plant; 0=no damage to plant)
How it was run: as §1

[7] = system: velvetleaf (Abutilon theophrasti); test: Test G Pre-Emergence Protocol; conditions: Abutilon theophrasti, pre-emergence, 312 h, evaluated after 13 days; for pest or weed control at 15.625 g/ha: 15.625 g ai/ha; for pest or weed control at 15.625 g/ha / pest or weed control at 250 g/ha: read-out: Velvetleaf damage rating (100=total damage to plant; 0=no damage to plant); for pest or weed control at 62.5 g/ha: 62.5 g ai/ha, 100=total damage to plant, 0=no damage to plant, read-out: plant damage rating, Velvetleaf; for pest or weed control at 250 g/ha: 250 g ai/ha
How it was run: (§2)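 One day after sowing, pots are treated with a spray of test compound formulated in acetone/water 50:50 plus 0.5% Tween 20, giving 15.625, 62.5 or 250 g/ha. Evaluation on a 0–100 damage scale follows 13 days of glasshouse growth.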

[8] = system: redroot pigweed (Amaranthus retroflexus); test: Test G Pre-Emergence Protocol; conditions: Amaranthus retroflexus, pre-emergence, 312 h, evaluated after 13 days; for pest or weed control at 15.625 g/ha: 15.625 g ai/ha; for pest or weed control at 15.625 g/ha / pest or weed control at 250 g/ha: read-out: Pigweed, Redroot damage rating (100=total damage to plant; 0=no damage to plant); for pest or weed control at 62.5 g/ha: 62.5 g ai/ha, 100=total damage to plant, 0=no damage to plant, read-out: plant damage rating, Pigweed, Redroot; for pest or weed control at 250 g/ha: 250 g ai/ha
How it was run: as §2

[9] = system: barnyardgrass (Echinochloa crus-galli); test: Test G Pre-Emergence Protocol; conditions: Echinochloa crus-galli, pre-emergence, 312 h, evaluated after 13 days; for pest or weed control at 15.625 g/ha: 15.625 g ai/ha, read-out: Barnyard grass damage rating (100=total damage to plant; 0=no damage to plant); for pest or weed control at 62.5 g/ha: 62.5 g ai/ha, 100=total damage to plant, 0=no damage to plant, read-out: plant damage rating, Barnyardgrass; for pest or weed control at 250 g/ha: 250 g ai/ha, read-out: Barnyardgrass damage rating (100=total damage to plant; 0=no damage to plant)
How it was run: as §2

[10] = system: giant foxtail (Setaria faberi); test: Test G Pre-Emergence Protocol; conditions: Setaria faberi, pre-emergence, 312 h, evaluated after 13 days; for pest or weed control at 15.625 g/ha: 15.625 g ai/ha; for pest or weed control at 15.625 g/ha / pest or weed control at 250 g/ha: read-out: Foxtail, Giant damage rating (100=total damage to plant; 0=no damage to plant); for pest or weed control at 62.5 g/ha: 62.5 g ai/ha, 100=total damage to plant, 0=no damage to plant, read-out: plant damage rating, Foxtail, Giant; for pest or weed control at 250 g/ha: 250 g ai/ha
How it was run: as §2

[11] = system: ivy-leaved morning glory (Ipomoea hederacea); test: Test G Pre-Emergence Protocol; conditions: Ipomoea, pre-emergence, 312 h, evaluated after 13 days; for pest or weed control at 15.625 g/ha: 15.625 g ai/ha, read-out: Morning-glory, Ivy-leaved damage rating (100=total damage to plant; 0=no damage to plant); for pest or weed control at 62.5 g/ha: 62.5 g ai/ha, 100=total damage to plant, 0=no damage to plant, read-out: plant damage rating, Morningglory, Ivy-leaved; for pest or weed control at 250 g/ha: 250 g ai/ha, read-out: Morningglory, Ivy-leaved damage rating (100=total damage to plant; 0=no damage to plant)
How it was run: as §2

[12] = system: corn (Zea mays); test: Test G Pre-Emergence Protocol; conditions: Zea mays, pre-emergence, 312 h, evaluated after 13 days; for plant injury at 15.625 g/ha: 15.625 g ai/ha; for plant injury at 15.625 g/ha / plant injury at 250 g/ha: read-out: Corn damage rating (100=total damage to plant; 0=no damage to plant); for plant injury at 62.5 g/ha: 62.5 g ai/ha, 100=total damage to plant, 0=no damage to plant, read-out: plant damage rating, Corn; for plant injury at 250 g/ha: 250 g ai/ha
How it was run: as §2

Row | SMILES | pest or weed control at 15.625 g/ha [1] [%] | pest or weed control at 62.5 g/ha [1] [%] | pest or weed control at 250 g/ha [1] [%] | pest or weed control at 15.625 g/ha [2] [%] | pest or weed control at 62.5 g/ha [2] [%] | pest or weed control at 250 g/ha [2] [%] | pest or weed control at 15.625 g/ha [3] [%] | pest or weed control at 62.5 g/ha [3] [%] | pest or weed control at 250 g/ha [3] [%] | pest or weed control at 15.625 g/ha [4] [%] | pest or weed control at 62.5 g/ha [4] [%] | pest or weed control at 250 g/ha [4] [%] | pest or weed control at 15.625 g/ha [5] [%] | pest or weed control at 62.5 g/ha [5] [%] | pest or weed control at 250 g/ha [5] [%] | plant injury at 15.625 g/ha [6] [%] | plant injury at 62.5 g/ha [6] [%] | plant injury at 250 g/ha [6] [%] | pest or weed control at 15.625 g/ha [7] [%] | pest or weed control at 62.5 g/ha [7] [%] | also measured
1 | CN1C[C@@H](c2ccc(C(F)(F)F)cc2)[C@H](C(=O)Nc2nccc(=O)[nH]2)C1=O (racemic) [Compound 1622] | 0 | 0 | 0 | 0 | 0 | 0 | 0 | 0 | 0 | 0 | 0 | 0 | 0 | 0 | 0 | 0 | 0 | 0 | 0 | 0 | pest or weed control at 250 g/ha [7]: 0%; pest or weed control at 15.625 g/ha [8]: 0%; pest or weed control at 62.5 g/ha [8]: 0%; pest or weed control at 250 g/ha [8]: 0%; pest or weed control at 15.625 g/ha [9]: 0%; pest or weed control at 62.5 g/ha [9]: 0%; pest or weed control at 250 g/ha [9]: 0%; pest or weed control at 15.625 g/ha [10]: 0%; pest or weed control at 62.5 g/ha [10]: 0%; pest or weed control at 250 g/ha [10]: 0%; pest or weed control at 15.625 g/ha [11]: 0%; pest or weed control at 62.5 g/ha [11]: 0%; pest or weed control at 250 g/ha [11]: 0%; plant injury at 15.625 g/ha [12]: 0%; plant injury at 62.5 g/ha [12]: 0%; plant injury at 250 g/ha [12]: 0%
2 | CN1C[C@@H](c2ccc(C(F)(F)F)cc2)[C@H](C(=O)Nc2cccc(F)c2)C1=O (racemic) [Compound 1623] | 0 | 0 | 20 | 10 | 20 | 60 | 10 | 70 | 80 | 30 | 70 | 80 | 30 | 30 | 60 | 0 | 0 | 30 | 10 | 0 | pest or weed control at 250 g/ha [7]: 50%; pest or weed control at 15.625 g/ha [8]: 10%; pest or weed control at 62.5 g/ha [8]: 10%; pest or weed control at 250 g/ha [8]: 50%; pest or weed control at 15.625 g/ha [9]: 10%; pest or weed control at 62.5 g/ha [9]: 30%; pest or weed control at 250 g/ha [9]: 60%; pest or weed control at 15.625 g/ha [10]: 20%; pest or weed control at 62.5 g/ha [10]: 60%; pest or weed control at 250 g/ha [10]: 80%; pest or weed control at 15.625 g/ha [11]: 10%; pest or weed control at 62.5 g/ha [11]: 10%; pest or weed control at 250 g/ha [11]: 10%; plant injury at 15.625 g/ha [12]: 10%; plant injury at 62.5 g/ha [12]: 0%; plant injury at 250 g/ha [12]: 10%
